Legend:
[1] = biological target: T1, human OATP2B1 (Homo sapiens, UniProt O94956); conditions: 10 min, 100 μM
T1 sequence (O94956 1-709): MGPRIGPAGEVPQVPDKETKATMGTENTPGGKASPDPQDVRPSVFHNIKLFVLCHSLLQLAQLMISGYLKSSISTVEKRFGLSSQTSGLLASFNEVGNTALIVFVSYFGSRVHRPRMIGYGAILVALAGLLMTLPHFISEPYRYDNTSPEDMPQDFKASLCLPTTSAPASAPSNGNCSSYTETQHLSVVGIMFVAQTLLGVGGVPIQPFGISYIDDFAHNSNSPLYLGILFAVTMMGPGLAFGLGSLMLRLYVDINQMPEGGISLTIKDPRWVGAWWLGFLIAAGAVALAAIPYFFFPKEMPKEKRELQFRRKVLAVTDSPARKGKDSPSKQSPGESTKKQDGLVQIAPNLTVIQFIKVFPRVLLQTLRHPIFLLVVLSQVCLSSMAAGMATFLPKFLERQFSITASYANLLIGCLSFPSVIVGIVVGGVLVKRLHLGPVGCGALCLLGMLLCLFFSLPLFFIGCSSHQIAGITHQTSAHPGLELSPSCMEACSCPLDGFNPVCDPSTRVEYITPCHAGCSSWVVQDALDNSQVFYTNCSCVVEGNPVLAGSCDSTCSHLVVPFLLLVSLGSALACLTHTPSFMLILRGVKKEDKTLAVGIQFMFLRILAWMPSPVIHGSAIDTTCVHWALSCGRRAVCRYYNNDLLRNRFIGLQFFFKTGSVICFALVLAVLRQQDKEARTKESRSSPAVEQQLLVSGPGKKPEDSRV

[2] = biological target: T2, rat Ntcp (Rattus norvegicus, UniProt P26435); conditions: 10 min, 100 μM
T2 sequence (P26435 1-362): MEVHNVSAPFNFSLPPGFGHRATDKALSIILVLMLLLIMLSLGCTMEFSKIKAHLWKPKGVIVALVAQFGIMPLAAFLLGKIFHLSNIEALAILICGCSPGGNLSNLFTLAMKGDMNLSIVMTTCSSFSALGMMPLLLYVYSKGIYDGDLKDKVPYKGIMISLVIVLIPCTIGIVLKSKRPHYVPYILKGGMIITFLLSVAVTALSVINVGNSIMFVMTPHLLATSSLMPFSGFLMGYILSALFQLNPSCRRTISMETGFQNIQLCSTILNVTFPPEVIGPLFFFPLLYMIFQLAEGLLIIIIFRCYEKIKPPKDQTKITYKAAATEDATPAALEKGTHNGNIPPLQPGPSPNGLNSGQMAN

[3] = biological target: T3, human PEPT1 (Homo sapiens, UniProt P46059); conditions: 10 min, 100 μM, pH 6
T3 sequence (P46059 1-708): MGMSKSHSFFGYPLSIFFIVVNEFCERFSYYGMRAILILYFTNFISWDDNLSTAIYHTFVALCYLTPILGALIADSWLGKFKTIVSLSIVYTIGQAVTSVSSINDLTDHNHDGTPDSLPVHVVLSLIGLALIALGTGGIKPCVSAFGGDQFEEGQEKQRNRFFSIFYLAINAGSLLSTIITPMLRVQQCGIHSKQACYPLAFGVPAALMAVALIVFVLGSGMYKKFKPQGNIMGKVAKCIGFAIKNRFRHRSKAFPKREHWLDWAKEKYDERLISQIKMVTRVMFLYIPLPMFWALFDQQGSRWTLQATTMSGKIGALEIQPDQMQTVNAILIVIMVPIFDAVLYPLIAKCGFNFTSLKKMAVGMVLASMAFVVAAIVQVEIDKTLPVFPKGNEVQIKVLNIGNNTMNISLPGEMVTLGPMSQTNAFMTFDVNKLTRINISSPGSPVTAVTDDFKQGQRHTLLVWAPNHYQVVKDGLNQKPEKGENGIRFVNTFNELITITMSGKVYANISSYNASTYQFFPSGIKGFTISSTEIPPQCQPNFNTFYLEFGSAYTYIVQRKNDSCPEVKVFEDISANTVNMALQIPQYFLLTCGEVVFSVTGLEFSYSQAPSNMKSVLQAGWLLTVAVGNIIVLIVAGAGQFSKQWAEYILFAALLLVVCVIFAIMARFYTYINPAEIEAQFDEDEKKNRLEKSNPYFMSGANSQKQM

[4] = biological target: T4, rat Pept1 (Rattus norvegicus, UniProt P51574); conditions: 10 min, 100 μM, pH 6
T4 sequence (P51574 1-710): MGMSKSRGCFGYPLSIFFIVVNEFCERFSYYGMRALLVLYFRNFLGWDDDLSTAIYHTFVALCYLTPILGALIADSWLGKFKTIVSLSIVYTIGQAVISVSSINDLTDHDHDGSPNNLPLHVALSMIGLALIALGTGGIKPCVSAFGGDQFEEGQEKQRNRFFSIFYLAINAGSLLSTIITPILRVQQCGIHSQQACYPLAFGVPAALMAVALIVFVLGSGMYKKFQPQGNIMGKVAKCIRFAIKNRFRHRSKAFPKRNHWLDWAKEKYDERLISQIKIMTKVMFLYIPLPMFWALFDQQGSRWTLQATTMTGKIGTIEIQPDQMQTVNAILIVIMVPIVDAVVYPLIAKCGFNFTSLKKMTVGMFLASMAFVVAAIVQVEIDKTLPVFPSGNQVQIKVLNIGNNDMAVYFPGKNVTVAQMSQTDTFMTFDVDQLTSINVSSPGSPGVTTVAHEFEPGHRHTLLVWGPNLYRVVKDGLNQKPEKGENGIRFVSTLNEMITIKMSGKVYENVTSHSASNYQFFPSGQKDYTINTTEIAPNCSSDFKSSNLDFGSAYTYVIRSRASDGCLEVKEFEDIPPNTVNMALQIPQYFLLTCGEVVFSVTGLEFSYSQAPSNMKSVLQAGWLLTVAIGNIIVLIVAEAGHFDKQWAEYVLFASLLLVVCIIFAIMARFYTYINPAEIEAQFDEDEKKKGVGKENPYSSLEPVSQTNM

SMILES | TransportTC/TransportMC ratio (net transport ratio) [1] | TransportTC/TransportMC ratio (net transport ratio) [2] | TransportTC/TransportMC ratio (net transport ratio) [3] | TransportTC/TransportMC ratio (net transport ratio) [4]
O=C(/C=C/c1ccc(O)c(O)c1)O[C@H](Cc1ccc(O)c(O)c1)C(=O)O [Rosmarinic acid, rosmarinic acid] | 1.69 ± 0.71 | 1.68 ± 0.25 | 1.42 ± 0.53 | 1.14 ± 0.13
O=C(/C=C/c1ccc(O)c(O)c1/C=C/c1ccc(O)c(O)c1)O[C@H](Cc1ccc(O)c(O)c1)C(=O)O [Salvianolic acid A, salvianolic acid A] | 2.45 ± 0.34 | 0.84 ± 0.13 | 1.45 ± 0.27 | 1.32 ± 0.13

Source: PMC9127186, “Molecular Basis Underlying Hepatobiliary and Renal Excretion of Phenolic Acids of Salvia miltiorrhiza Roots (Danshen)” (Frontiers in Pharmacology, 2022)
